Series [1] concerns MCF-7 cells (cell line of breast cancer). The experiment in a line: MTT cytotoxicity assay in MCF-7 cell line. The series is classed as cell-based. Conditions: MCF-7, at 1 mg/ml. As for the experimental part:
The direct effect of curcumin and doxorubicin on the viability of cultured cells was assessed in vitro using the MCF-7 cells (cell line of breast cancer). […] Fresh cell medium was then prepared with test compounds in appropriate dilutions (equivalent to their concentrations as determined by HPLC). Cell growth after 48 h was assayed by MTT assay [3-(4,5-Dimethylthiazol-2-yl)-2,5-diphenyltetrazolium bromide, Sigma-Aldrich] and was evaluated by measuring the absorbance at 540 nm after 3 h of incubation in a medium containing 0.5 mg/ml MTT (Sunrise™ absorbance plate reader, TECAN). […] FIG. 13C presents dose response behavior of DOX-loaded and unloaded NPs vs. solutions at various concentrations after 24-h and 48-h incubation.

In a further series the test system is melanoma B16F0 cells. As to the kind of experiment: B16F0 melanoma tumor model in mice. Conditions: day 18 of treatment, 0.5 mg/kg s.c. twice a week.
Series [2] can be described thus: Dynamic dialysis of chloramphenicol, apparent dialysis bag permeability constant. The series is classed as physicochemical. The following applies: dialysis bag 10K MWCO, NaCl 0.9% w/v. The procedure: The amount of drug released from the NPs was determined by a dynamic dialysis technique monitoring the drug concentration in the receiver solution (i.e., outer solution surrounding a dialysis bag). The method is based on the assumption that drug is first released from the NPs into the donor solution (i.e., the dissolution medium inside the dialysis bag). Subsequently, the drug can diffuse through the dialysis bag from the donor to the receiver.
A sample of 3 ml of the NP dispersion (1:1 diluted with saline) was introduced into a dialysis bag (SnakeSkin Dialysis Tubing, 10K MWCO, 22 mm, Thermo Fisher Scientific, Rockford, USA). The sample was dialyzed against 60 ml of saline solution (NaCl solution, 0.9%, w/v) for 7 hours. The receiver solution was agitated by magnetic stirring throughout the experimental procedure. Samples of 200 μl were withdrawn from the receiver solution at predetermined time intervals and their drug concentrations were measured by HPLC.
The apparent dialysis bag permeability constant (k′) was calculated according to the method described in ‘Materials and Methods’ section 2.6. […]

The conditions of series [3]: topically applied, eye drops; cited from earlier work.

Counter-ions that a name gives are not always drawn.

Protocol for melanoma B16F0 cells: Female C57BL/6 mice (5-6 weeks old, 14-18 g) were obtained from Harlan Laboratories Ltd (Jerusalem, Israel). Mice were housed under humidity- and temperature-controlled conditions, and the light/dark cycle was set at 12-h intervals.
B16F0 melanoma cells were maintained in RPMI 1640 medium supplemented with 10% bovine serum and 200 μM L-glutamine, 10 units/mL penicillin, and 10 μg/mL streptomycin (Biological Industries, Beth Ha'Emek, Israel). The cells were kept at 37° C. in a 5% CO2 humidified atmosphere.
The mice were inoculated with melanoma B16F0 cells (1×10^6) subcutaneously in the right flank of the mice. After tumors had been visualized a week later, the mice were weighed and measured for tumor size (244±213 mm^3), and were randomly sorted into three groups. […] Tumor volumes and mouse body weights were measured routinely before each treatment. Measurement of tumor size was performed with a caliper in two dimensions, and individual tumor volumes (V) were calculated by the formula: V=[length×(width)^2]×π/6.
The statistical differences between the therapeutic effects of different treatments on tumor growth were determined by two-tailed Student's test. […]

Consider `COc1cccc2c1C(=O)c1c(O)c3c(c(O)c1C2=O)C[C@@](O)(C(=O)CO)C[C@@H]3O[C@H]1C[C@H](N)[C@H](O)[C@H](C)O1` [DOX-HCl solution, doxorubicin], for which the cytotoxicity entry in series [1] is “highly cytotoxic”. This molecule also had a survival with melanoma B16F0 cells of 58%.

As usually defined, the half-life is the time in which the quantity being followed falls by half. Take `O=C(N[C@H](CO)[C@H](O)c1ccc([N+](=O)[O-])cc1)C(Cl)Cl` [chloramphenicol]: in series [2], the “apparent permeability constant (k′)” value was determined as 1.207 ± 0.018 h⁻¹. In addition, in series [3], the bioavailability is reported as 1-10% and the half-life was 1.5 to 5 h.
